The record followed here is ChEMBL document CHEMBL1201862, “PubChem BioAssay data set” (2004).

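A five-concentration, 48-hour dose response in 96-well plates underlies each endpoint, interpolated linearly between surrounding concentrations. The concentration for 50% growth inhibition is given as GI50.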 Activity calls are given as the source filed them. No stated cut-off is given here; in the data, active = GI50 up to about 1.1 µM and inactive = higher.

Test systems include CCRF-CEM; UACC-257; KM12; MOLT-4; COLO 205; HCC 2998; Malme-3M; SF-295; EKVX; HCT-116; HL-60; NCI-H226; K562; OVCAR-3; TK-10; MDA-MB-435; NCI-H522; A498; RXF 393; OVCAR-4.
What all share (test): NCI anticancer screen, dose series, 48 h

For the compound `O=c1c2nc(-c3ccccc3)oc2n(-c2ccccc2)c(=O)n1-c1ccccc1`, the GI50 in the test with CCRF-CEM was > 46.5 µM (inactive); in the test on UACC-257, 36.3 µM (inactive); in the test on KM12 it was 33.2 µM (inactive); in the test on MOLT-4, > 46.5 µM (inactive); with COLO 205, > 46.5 µM (inactive); with HCC 2998, > 46.5 µM (inactive). Besides, the GI50 in the test on Malme-3M is > 31.6 µM (inactive); in the test on SF-295 it was 19.1 µM (inactive); in the test with EKVX it was 28.4 µM (inactive); with HCT-116, 31.7 µM (inactive); with HL-60, > 100 µM (inactive); with NCI-H226 it was 31.8 µM (inactive). The GI50 was > 46.5 µM (inactive) in the test on K562; 25.8 µM (inactive) in the test with OVCAR-3; 15 µM (inactive) with TK-10; > 46.5 µM (inactive) in the test with MDA-MB-435; 21.4 µM (inactive) in the test on NCI-H522; 25.8 µM (inactive) in the test with A498. The GI50 was 18.1 µM (inactive) in the test on RXF 393 and 18.8 µM (inactive) in the test on OVCAR-4.
As for `O=c1c(C(c2ccc3ccccc3c2)c2c(O)oc3ccccc3c2=O)c(O)oc2ccccc12`, the GI50 was 46.5 µM (inactive) in the test with CCRF-CEM; 51.5 µM (inactive) in the test on UACC-257; 18.1 µM (inactive) with KM12; 22.4 µM (inactive) with MOLT-4; 30.5 µM (inactive) in the test on COLO 205; 17.9 µM (inactive) in the test with HCC 2998. The GI50 with Malme-3M is 17.7 µM (inactive); in the test on SF-295 it was 50.4 µM (inactive); with EKVX, 31.9 µM (inactive); in the test with HCT-116 it was 35 µM (inactive); in the test with HL-60, 34 µM (inactive); in the test with NCI-H226 it was 26.5 µM (inactive). Further, the GI50 is 50.6 µM (inactive) in the test on K562; 32.5 µM (inactive) in the test with OVCAR-3; 61.8 µM (inactive) with TK-10; 24.9 µM (inactive) in the test with MDA-MB-435; 17.5 µM (inactive) in the test on NCI-H522; 36.3 µM (inactive) in the test on A498. In addition, the GI50 in the test on RXF 393 was 46.7 µM (inactive); with OVCAR-4, 26.7 µM (inactive).
Turning to `Cc1[nH]c(=O)[nH]c(=S)c1C(=O)NC(C)(CO)CO`, the GI50 in the test with CCRF-CEM, in the test with UACC-257, in the test on KM12, in the test with MOLT-4, with COLO 205 and with HCC 2998 was > 100 µM (inactive) in each case. In addition, the GI50 in the test with Malme-3M, in the test with SF-295, in the test with EKVX, with HCT-116, in the test on HL-60 and with NCI-H226 was > 100 µM (inactive) throughout. The GI50 in the test with K562, in the test on OVCAR-3, with TK-10, in the test on MDA-MB-435, in the test on NCI-H522 and with A498 was > 100 µM (inactive) each time. Further, the GI50 with RXF 393 and in the test with OVCAR-4 was > 100 µM (inactive) throughout.
Take `Cc1cc(NCC2CC/C(=C\C=C\c3ccccc3)C2=O)no1` (stereo not given): the GI50 in the test on CCRF-CEM is > 100 µM (inactive); in the test with UACC-257, 57.8 µM (inactive); with KM12 it was 41.8 µM (inactive); with MOLT-4 it was 49.3 µM (inactive); in the test on COLO 205, > 100 µM (inactive); in the test with HCC 2998, > 100 µM (inactive). The GI50 with Malme-3M is > 100 µM (inactive); in the test on SF-295, 40.8 µM (inactive); in the test on EKVX it was > 100 µM (inactive); with HCT-116 it was > 100 µM (inactive); in the test with HL-60, 42.7 µM (inactive); with NCI-H226, 49.8 µM (inactive). Besides, the GI50 was 92.7 µM (inactive) in the test with K562; > 100 µM (inactive) with OVCAR-3; 84.9 µM (inactive) in the test on TK-10; > 100 µM (inactive) in the test on MDA-MB-435; > 100 µM (inactive) in the test on NCI-H522; 51.8 µM (inactive) in the test on A498. In addition, the GI50 with RXF 393 and in the test on OVCAR-4 was > 100 µM (inactive) each time.
Regarding `Cn1c(=O)n(CC(Br)CBr)c(=O)n(CC(Br)CBr)c1=O` (stereo not given), the GI50 with CCRF-CEM is 22.7 µM (inactive); with UACC-257, 31.8 µM (inactive); in the test on KM12, 48.9 µM (inactive); with MOLT-4, 26.3 µM (inactive); with COLO 205, 21 µM (inactive); in the test on HCC 2998 it was 28.4 µM (inactive). Also, the GI50 in the test on Malme-3M is > 100 µM (inactive); in the test with SF-295, 45 µM (inactive); in the test on EKVX, 25.2 µM (inactive); with HCT-116 it was 25.9 µM (inactive); in the test with HL-60, 20.4 µM (inactive); in the test on NCI-H226, 20.2 µM (inactive). Moreover, the GI50 with K562 was 32.5 µM (inactive); with OVCAR-3 it was 38.5 µM (inactive); in the test on TK-10 it was 55.5 µM (inactive); with MDA-MB-435 it was 29.9 µM (inactive); in the test on NCI-H522, 28 µM (inactive); in the test with A498 it was 77.4 µM (inactive). Besides, the values for the GI50 with RXF 393 and in the test with OVCAR-4 were 32.8 µM (inactive) and 66.2 µM (inactive), respectively.
For the compound `CC(=O)NC(CCC(=O)C=[N+]=[N-])C(=O)O` (stereo not given), the GI50 in the test on CCRF-CEM, with UACC-257, with KM12, with MOLT-4, with COLO 205 and with HCC 2998 was > 100 µM (inactive) in each case. Also, the GI50 in the test on Malme-3M, in the test on SF-295, with EKVX, in the test on HCT-116, with HL-60 and in the test with NCI-H226 was > 100 µM (inactive) throughout. Also, the GI50 with K562, with OVCAR-3, in the test with TK-10, in the test on MDA-MB-435, in the test with NCI-H522 and in the test on A498 was > 100 µM (inactive) throughout. Moreover, the GI50 with RXF 393 and in the test with OVCAR-4 was > 100 µM (inactive) each time.
As to `C=C1C(=O)C=C2C=C3C(=O)C(C)(C)C[C@]3(O)C12C` (stereo not given in full), the GI50 with CCRF-CEM is 0.131 µM (active); in the test on UACC-257 it was 2.93 µM (inactive); in the test on KM12, 16.2 µM (inactive); with MOLT-4, 0.57 µM (active); in the test on COLO 205, 1.5 µM (inactive); with HCC 2998 it was 19.7 µM (inactive). For the same compound, the GI50 in the test on Malme-3M was 1.83 µM (inactive); with SF-295, 19 µM (inactive); in the test on EKVX, 16.1 µM (inactive); with HCT-116 it was 3.97 µM (inactive); in the test with HL-60 it was 0.497 µM (active); with NCI-H226, 22.1 µM (inactive). Moreover, the GI50 was 0.684 µM (active) in the test with K562; 1.8 µM (inactive) with OVCAR-3; 1.84 µM (inactive) in the test on TK-10; 12.4 µM (inactive) with MDA-MB-435; 1.61 µM (inactive) in the test on NCI-H522; 12.8 µM (inactive) in the test with A498. Moreover, the values for the GI50 in the test with RXF 393 and in the test on OVCAR-4 were 1.48 µM (inactive) and 3.43 µM (inactive), respectively.
As to `COc1ccc(C(=O)c2sc(Nc3ccc(Cl)cc3)nc2N)cc1`, the GI50 in the test with CCRF-CEM is 2.52 µM (inactive); with UACC-257 it was 11.9 µM (inactive); in the test on KM12, 4.48 µM (inactive); in the test on MOLT-4, 4.04 µM (inactive); in the test on COLO 205, > 21.2 µM (inactive); in the test on HCC 2998, 4.91 µM (inactive). Further, the GI50 is 12.3 µM (inactive) with Malme-3M; 11.1 µM (inactive) in the test on SF-295; 32.8 µM (inactive) with EKVX; 7.66 µM (inactive) in the test with HCT-116; 0.473 µM (active) in the test on HL-60; 29.6 µM (inactive) in the test with NCI-H226. Further, the GI50 in the test with K562 is 3.82 µM (inactive); in the test with OVCAR-3, 8.85 µM (inactive); with TK-10, 10.1 µM (inactive); with MDA-MB-435, 2.2 µM (inactive); in the test with NCI-H522 it was 3.89 µM (inactive); in the test on A498, 17 µM (inactive). Further, the GI50 was 14.1 µM (inactive) with RXF 393 and 12.6 µM (inactive) in the test on OVCAR-4.
Turning to `COc1ccc(/C=C2/CSC/C(=C/c3ccc(OC)c(OC)c3)C2=O)cc1OC`, the GI50 is 0.849 µM (active) with CCRF-CEM; 4.11 µM (inactive) in the test on UACC-257; 0.798 µM (active) with KM12; 1.74 µM (inactive) with MOLT-4; 2.24 µM (inactive) in the test with COLO 205; 2.57 µM (inactive) with HCC 2998. For the same compound, the GI50 in the test with Malme-3M was 4.71 µM (inactive); in the test with SF-295, 2.44 µM (inactive); with EKVX, 5.86 µM (inactive); in the test on HCT-116, 0.971 µM (active); in the test with HL-60, 1.03 µM (active); in the test with NCI-H226 it was 1.92 µM (inactive). Further, the GI50 in the test with K562 was 1.42 µM (inactive); with OVCAR-3, 2 µM (inactive); with TK-10 it was 3.9 µM (inactive); in the test with MDA-MB-435, 2.97 µM (inactive); with NCI-H522, 2.26 µM (inactive); in the test on A498, 4.93 µM (inactive). For the same compound, the GI50 in the test on RXF 393 is 3.34 µM (inactive); with OVCAR-4 it was 1.71 µM (inactive).
As for `COC(=O)CCC(=O)NC1=C(Nc2ccccc2)C(=O)c2ccccc2C1=O`, the GI50 in the test on CCRF-CEM is 9.95 µM (inactive); in the test on UACC-257 it was 2.84 µM (inactive); in the test with KM12 it was 15.7 µM (inactive); in the test with MOLT-4, 12.1 µM (inactive); with COLO 205, 16.7 µM (inactive); with HCC 2998, 22.9 µM (inactive). For the same compound, the GI50 was 2.55 µM (inactive) with Malme-3M; 15.4 µM (inactive) in the test on SF-295; 16.6 µM (inactive) with EKVX; 9.71 µM (inactive) with HCT-116; 3.36 µM (inactive) in the test on HL-60; 14.6 µM (inactive) in the test with NCI-H226. For the same compound, the GI50 in the test on K562 is 14.8 µM (inactive); in the test with OVCAR-3, 2.94 µM (inactive); with TK-10, 22.5 µM (inactive); in the test with MDA-MB-435, 1.97 µM (inactive); in the test with NCI-H522, 14.8 µM (inactive); in the test with A498, 15 µM (inactive). The GI50 in the test on RXF 393 was 8.81 µM (inactive); in the test with OVCAR-4, 10.5 µM (inactive).
